Assay results reported in PubChem BioAssay AID1963843 (Molecular Pharmacology Branch, DTP, NCI, 2024).
pIC50: −log10 of the molar value.

System: 616215-338-R-J1-PDC complex spheroid viability
Assay: Anticancer human tumor 616215-338-R-J1-PDC patient-derived colon adenocarcinoma cell line growth inhibition [POLQ]
Conditions: for pIC50: curve of first compound; for viability, T/C: stronger effect = lower value
Outline: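 Three-cell-type spheroids modelling solid tumor plus stroma served as the readout system; POL inhibitors were tested individually and in combination, concentration ranges set by clinical Cmax where known.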

[1] = second compound 0.0316 µM, first compound 0.0316 µM
[2] = second compound 0.0316 µM, first compound 0.1 µM
[3] = second compound 0.0316 µM, first compound 0.316 µM
[4] = second compound 0.0316 µM, first compound 1 µM
[5] = second compound 0.0316 µM, first compound 3.16 µM
[6] = second compound 0.0316 µM, first compound 10 µM
[7] = second compound 0.1 µM, first compound 0.0316 µM
[8] = second compound 0.1 µM, first compound 0.1 µM
[9] = second compound 0.1 µM, first compound 0.316 µM
[10] = second compound 0.1 µM, first compound 1 µM
[11] = second compound 0.1 µM, first compound 3.16 µM
[12] = second compound 0.1 µM, first compound 10 µM
[13] = second compound 0.316 µM, first compound 0.0316 µM
[14] = second compound 0.316 µM, first compound 0.1 µM
[15] = second compound 0.316 µM, first compound 0.316 µM
[16] = second compound 0.316 µM, first compound 1 µM
[17] = second compound 0.316 µM, first compound 3.16 µM
[18] = second compound 0.316 µM, first compound 10 µM
[19] = second compound 1 µM, first compound 0.0316 µM
[20] = second compound 1 µM, first compound 0.1 µM
[21] = second compound 1 µM, first compound 0.316 µM
[22] = second compound 1 µM, first compound 1 µM
[23] = second compound 1 µM, first compound 3.16 µM
[24] = second compound 1 µM, first compound 10 µM
[25] = second compound 3.16 µM, first compound 0.0316 µM
[26] = second compound 3.16 µM, first compound 0.1 µM
[27] = second compound 3.16 µM, first compound 0.316 µM
[28] = second compound 3.16 µM, first compound 1 µM
[29] = second compound 3.16 µM, first compound 3.16 µM
[30] = second compound 3.16 µM, first compound 10 µM
[31] = second compound 10 µM, first compound 0.0316 µM
[32] = second compound 10 µM, first compound 0.1 µM
[33] = second compound 10 µM, first compound 0.316 µM
[34] = second compound 10 µM, first compound 1 µM
[35] = second compound 10 µM, first compound 3.16 µM
[36] = second compound 10 µM, first compound 10 µM
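Also: spheroids exposed to compounds for one week before readout.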
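For viability, T/C in this document: percent viability relative to DMSO vehicle wells taken as 100%.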

SMILES: C#Cc1c(F)ccc2cc(O)cc(-c3ncc4c(N5CC6CCC(C5)N6)nc(OCC56CCCN5CC(F)C6)nc4c3F)c12 (stereo not drawn) + Nc1ccc(C#CCN(C(=O)Cc2ncc(C(F)(F)F)cc2C(F)(F)F)c2ccc(F)cc2)nn1
- pIC50 (second compound 0.0316 µM): 5.14
- pIC50 (second compound 0.1 µM): 5.39
- pIC50 (second compound 0.316 µM): 5.46
- pIC50 (second compound 1 µM): 5.18
- pIC50 (second compound 3.16 µM): 5.19
- pIC50 (second compound 10 µM): 5.60
- viability, T/C [1]: 105%
- viability, T/C [2]: 96.2%
- viability, T/C [3]: 98.5%
- viability, T/C [4]: 88.6%
- viability, T/C [5]: 62.5%
- viability, T/C [6]: 45.3%
- viability, T/C [7]: 97.1%
- viability, T/C [8]: 95.9%
- viability, T/C [9]: 90.4%
- viability, T/C [10]: 75.3%
- viability, T/C [11]: 56.9%
- viability, T/C [12]: 29.2%
- viability, T/C [13]: 111%
- viability, T/C [14]: 112%
- viability, T/C [15]: 75.2%
- viability, T/C [16]: 63.3%
- viability, T/C [17]: 58.6%
- viability, T/C [18]: 39%
- viability, T/C [19]: 103%
- viability, T/C [20]: 96.2%
- viability, T/C [21]: 91.3%
- viability, T/C [22]: 81.9%
- viability, T/C [23]: 53.7%
- viability, T/C [24]: 47.9%
- viability, T/C [25]: 84.7%
- viability, T/C [26]: 89.2%
- viability, T/C [27]: 99.5%
- viability, T/C [28]: 68.8%
- viability, T/C [29]: 68.1%
- viability, T/C [30]: 40.7%
- viability, T/C [31]: 92.9%
- viability, T/C [32]: 86.2%
- viability, T/C [33]: 74.6%
- viability, T/C [34]: 57.1%
- viability, T/C [35]: 50.6%
- viability, T/C [36]: 33.7%

SMILES: CC1COCCN1c1cc(C2(O)CC3CCC(C2)O3)c2cnn(-c3ccn[nH]3)c2n1 (stereo not drawn) + Nc1ccc(C#CCN(C(=O)Cc2ncc(C(F)(F)F)cc2C(F)(F)F)c2ccc(F)cc2)nn1
- pIC50 (second compound 0.0316 µM): 6.47
- pIC50 (second compound 0.1 µM): 6.56
- pIC50 (second compound 0.316 µM): 6.57
- pIC50 (second compound 1 µM): 6.60
- pIC50 (second compound 3.16 µM): 6.84
- pIC50 (second compound 10 µM): 6.80
- viability, T/C [1]: 94.8%
- viability, T/C [2]: 67.6%
- viability, T/C [3]: 52.2%
- viability, T/C [4]: 37.1%
- viability, T/C [5]: 24.3%
- viability, T/C [6]: 17.9%
- viability, T/C [7]: 98.6%
- viability, T/C [8]: 76.6%
- viability, T/C [9]: 37.8%
- viability, T/C [10]: 38.1%
- viability, T/C [11]: 24.3%
- viability, T/C [12]: 15.3%
- viability, T/C [13]: 93.8%
- viability, T/C [14]: 76.3%
- viability, T/C [15]: 42%
- viability, T/C [16]: 35.2%
- viability, T/C [17]: 27.6%
- viability, T/C [18]: 19.9%
- viability, T/C [19]: 94.1%
- viability, T/C [20]: 69.1%
- viability, T/C [21]: 39.5%
- viability, T/C [22]: 36.8%
- viability, T/C [23]: 28.6%
- viability, T/C [24]: 18.5%
- viability, T/C [25]: 92.8%
- viability, T/C [26]: 54.9%
- viability, T/C [27]: 36.3%
- viability, T/C [28]: 26.7%
- viability, T/C [29]: 27.3%
- viability, T/C [30]: 14.6%
- viability, T/C [31]: 101%
- viability, T/C [32]: 56.2%
- viability, T/C [33]: 36.6%
- viability, T/C [34]: 26.9%
- viability, T/C [35]: 24.2%
- viability, T/C [36]: 9.04%

SMILES: CCc1cc2c(N3CCc4c(cc(Cn5ccnc5)cc4-c4cn(C)nc4C(F)(F)F)C3=O)cc(C)nc2c(OC)n1 + Nc1ccc(C#CCN(C(=O)Cc2ncc(C(F)(F)F)cc2C(F)(F)F)c2ccc(F)cc2)nn1
- pIC50 (second compound 0.0316 µM): 5.60
- pIC50 (second compound 0.1 µM): 5.53
- pIC50 (second compound 0.316 µM): 5.61
- pIC50 (second compound 1 µM): 5.62
- pIC50 (second compound 3.16 µM): 5.58
- pIC50 (second compound 10 µM): 5.85
- viability, T/C [1]: 106%
- viability, T/C [2]: 108%
- viability, T/C [3]: 80.2%
- viability, T/C [4]: 62%
- viability, T/C [5]: 51%
- viability, T/C [6]: 38.5%
- viability, T/C [7]: 123%
- viability, T/C [8]: 101%
- viability, T/C [9]: 68.7%
- viability, T/C [10]: 60.9%
- viability, T/C [11]: 54.3%
- viability, T/C [12]: 40%
- viability, T/C [13]: 105%
- viability, T/C [14]: 111%
- viability, T/C [15]: 75.8%
- viability, T/C [16]: 61.5%
- viability, T/C [17]: 51.5%
- viability, T/C [18]: 40.1%
- viability, T/C [19]: 115%
- viability, T/C [20]: 108%
- viability, T/C [21]: 91.5%
- viability, T/C [22]: 57%
- viability, T/C [23]: 51.8%
- viability, T/C [24]: 41.9%
- viability, T/C [25]: 112%
- viability, T/C [26]: 111%
- viability, T/C [27]: 78.2%
- viability, T/C [28]: 63.6%
- viability, T/C [29]: 51.1%
- viability, T/C [30]: 38.4%
- viability, T/C [31]: 99.4%
- viability, T/C [32]: 98.2%
- viability, T/C [33]: 74.9%
- viability, T/C [34]: 53.3%
- viability, T/C [35]: 45.8%
- viability, T/C [36]: 41.4%

SMILES: O=C(Nc1ccc(O)c(NS(=O)(=O)c2ccc(F)cc2)c1)c1ccc(-c2ccccc2)cc1 + Nc1ccc(C#CCN(C(=O)Cc2ncc(C(F)(F)F)cc2C(F)(F)F)c2ccc(F)cc2)nn1
- pIC50 (second compound 0.0316 µM): 5.00
- pIC50 (second compound 0.1 µM): < 5.00
- pIC50 (second compound 0.316 µM): < 5.00
- pIC50 (second compound 1 µM): < 5.00
- pIC50 (second compound 3.16 µM): < 5.00
- pIC50 (second compound 10 µM): 5.18
- viability, T/C [1]: 108%
- viability, T/C [2]: 105%
- viability, T/C [3]: 105%
- viability, T/C [4]: 104%
- viability, T/C [5]: 119%
- viability, T/C [6]: 49.7%
- viability, T/C [7]: 108%
- viability, T/C [8]: 105%
- viability, T/C [9]: 114%
- viability, T/C [10]: 105%
- viability, T/C [11]: 100%
- viability, T/C [12]: 56%
- viability, T/C [13]: 108%
- viability, T/C [14]: 107%
- viability, T/C [15]: 103%
- viability, T/C [16]: 104%
- viability, T/C [17]: 96.6%
- viability, T/C [18]: 72.6%
- viability, T/C [19]: 105%
- viability, T/C [20]: 106%
- viability, T/C [21]: 106%
- viability, T/C [22]: 101%
- viability, T/C [23]: 91.2%
- viability, T/C [24]: 54%
- viability, T/C [25]: 106%
- viability, T/C [26]: 103%
- viability, T/C [27]: 102%
- viability, T/C [28]: 102%
- viability, T/C [29]: 76.5%
- viability, T/C [30]: 50.7%
- viability, T/C [31]: 93.9%
- viability, T/C [32]: 84.2%
- viability, T/C [33]: 93.2%
- viability, T/C [34]: 105%
- viability, T/C [35]: 85.8%
- viability, T/C [36]: 29.3%
